Reference: US20180368410A1, “MICROBIOCIDAL OXADIAZOLE DERIVATIVES” (SYNGENTA PARTICIPATIONS AG, priority 2015, published 2018)

Tests used:
[1] = test system: Puccinia recondita f. Sp. Tritici; experiment: Puccinia recondita f. sp. tritici / wheat / leaf disc preventative (brown rust); format: in vivo, Puccinia recondita f. sp. tritici on wheat cv. Kanzler; settings: foliar, 200 ppm in the applied formulation, inoculated 1 day after application, assessed 7 to 9 days after application, vs untreated control leaf disks, read-out: disease control
Method: Leaf disks or leaf segments of various plant species are cut from plants grown in a greenhouse. The cut leaf disks or segments are placed in multiwell plates (24-well format) onto water agar. The leaf disks are sprayed with a test solution before (preventative) or after (curative) inoculation. Compounds to be tested are prepared as DMSO solutions (max. 10 mg/ml) which are diluted to the appropriate concentration with 0.025% Tween20 just before spraying. The inoculated leaf disks or segments are incubated under defined conditions (temperature, relative humidity, light, etc.) according to the respective test system. A single evaluation of disease level is carried out 3 to 14 days after inoculation, depending on the pathosystem. Percent disease control relative to the untreated check leaf disks or segments is then calculated. Wheat leaf segments cv. Kanzler were placed on agar in multiwell plates (24-well format) and sprayed with the formulated test compound diluted in water. The leaf disks were inoculated with a spore suspension of the fungus 1 day after application. The inoculated leaf segments were incubated at 19′C and 75% relative humidity (rh) under a light regime of 12 hours light/12 hours darkness in a climate cabinet and the activity of a compound was assessed as percent disease control compared to untreated when an appropriate level of disease damage appears in untreated check leaf segments (7 to 9 days after application). The following compounds at 200 ppm in the applied formulation give at least 80% disease control in this test when compared to untreated control leaf disks under the same conditions, which show extensive disease development.

[2] = test system: Puccinia recondita f. Sp. Triticil; experiment: Puccinia recondita f. sp. tritici / wheat / leaf disc curative (brown rust); format: in vivo, Puccinia recondita f. sp. tritici on wheat cv. Kanzler; settings: foliar, 200 ppm in the applied formulation, applied 1 day after inoculation, assessed 6 to 8 days after application, vs untreated control leaf disks, read-out: disease control
Method: (§1) Leaf disks or leaf segments of various plant species are cut from plants grown in a greenhouse. The cut leaf disks or segments are placed in multiwell plates (24-well format) onto water agar. The leaf disks are sprayed with a test solution before (preventative) or after (curative) inoculation. Compounds to be tested are prepared as DMSO solutions (max. 10 mg/ml) which are diluted to the appropriate concentration with 0.025% Tween20 just before spraying. The inoculated leaf disks or segments are incubated under defined conditions (temperature, relative humidity, light, etc.) according to the respective test system. A single evaluation of disease level is carried out 3 to 14 days after inoculation, depending on the pathosystem. Percent disease control relative to the untreated check leaf disks or segments is then calculated.
Wheat leaf segments cv. Kanzler are placed on agar in multiwell plates (24-well format). The leaf segments are then inoculated with a spore suspension of the fungus. Plates were stored in darkness at 19° C. and 75% relative humidity. The formulated test compound diluted in water was applied 1 day after inoculation. The leaf segments were incubated at 19° C. and 75% relative humidity under a light regime of 12 hours light/12 hours darkness in a climate cabinet and the activity of a compound was assessed as percent disease control compared to untreated when an appropriate level of disease damage appears in untreated check leaf segments (6 to 8 days after application).
(§2) The following compounds at 200 ppm in the applied formulation give at least 80% disease control in this test when compared to untreated control leaf disks under the same conditions, which show extensive disease development.

[3] = test system: Glomerella Lacenarium (Colletotrichum lacenarium); experiment: Glomerella lagenarium (Colletotrichum lagenarium) liquid culture / cucumber / preventative (anthracnose); format: cell-based; settings: 20 ppm in the applied formulation, liquid culture in PDB, 24° C., inhibition of growth measured photometrically 3 to 4 days after application, vs untreated control, read-out: disease control
Method: Mycelia fragments or conidia suspensions of a fungus prepared either freshly from liquid cultures of the fungus or from cryogenic storage, are directly mixed into nutrient broth. DMSO solutions of the test compound (max. 10 mg/ml) are diluted with 0.025% Tween20 by a factor of 50 and 10 μl of this solution is pipetted into a microtiter plate (96-well format). The nutrient broth containing the fungal spores/mycelia fragments is then added to give an end concentration of the tested compound. The test plates are incubated in the dark at 24° C. and 96% relative humidity. The inhibition of fungal growth is determined photometrically after 2 to 7 days, depending on the pathosystem, and percent antifungal activity relative to the untreated check is calculated.
Conidia of the fungus from cryogenic storage are directly mixed into nutrient broth (PDB—potato dextrose broth). After placing a (DMSO) solution of test compound into a microtiter plate (96-well format), the nutrient broth containing the fungal spores is added. The test plates are incubated at 24° C. and the inhibition of growth is measured photometrically 3 to 4 days after application.
The following compounds at 20 ppm in the applied formulation give at least 80% disease control in this test when compared to untreated control under the same conditions, which show extensive disease development.

Phakopsora pachyrhizi = Phakopsora pachyrhizi / soybean / leaf disc preventative (Asian soybean rust); format: in vivo, Phakopsora pachyrhizi on soybean; settings: foliar, 200 ppm in the applied formulation, inoculated one day after application, assessed 12 to 14 days after application, vs untreated control leaf disks, read-out: disease control
Method: as §1
Soybean leaf disks are placed on water agar in multiwell plates (24-well format) and sprayed with the formulated test compound diluted in water. One day after application leaf discs are inoculated by spraying a spore suspension on the lower leaf surface. After an incubation period in a climate cabinet of 24-36 hours in darkness at 20° C. and 75% rh leaf disc are kept at 20° C. with 12 h light/day and 75% rh. The activity of a compound is assessed as percent disease control compared to untreated when an appropriate level of disease damage appears in untreated check leaf disks (12 to 14 days after application).
as §2

CC1CC1C(=O)NCc1ccc(-c2noc(C(F)(F)F)n2)cc1 (stereo not drawn) [Compound 1.24, 2-methyl-N-[[4-[5-(trifluoromethyl)-1,2,4-oxadiazol-3-yl]phenyl]methyl] cyclopropanecarboxamide]
≥ 80%: pest or weed control at 200 ppm [1] | pest or weed control at 200 ppm [2] | inhibition of growth at 20 ppm [3] | pest or weed control at 200 ppm (Phakopsora pachyrhizi)

O=C(NCc1ccc(-c2noc(C(F)(F)F)n2)c(F)c1)C1CCC1 [Compound 1.93, N-[[3-fluoro-4-[5-(trifluoromethyl)-1,2,4-oxadiazol-3-yl]phenyl]methyl] cyclobutanecarboxamide]
≥ 80%: pest or weed control at 200 ppm [1] | pest or weed control at 200 ppm [2] | inhibition of growth at 20 ppm [3] | pest or weed control at 200 ppm (Phakopsora pachyrhizi)

O=C(CC1CC1)NCc1ccc(-c2noc(C(F)(F)F)n2)cc1 [Compound 1.53, 2-cyclopropyl-N-[[4-[5-(trifluoromethyl)-1,2,4-oxadiazol-3-yl]phenyl]methyl]acetamide]
≥ 80%: pest or weed control at 200 ppm [1] | pest or weed control at 200 ppm [2] | inhibition of growth at 20 ppm [3] | pest or weed control at 200 ppm (Phakopsora pachyrhizi)

CC1(C(=O)NCc2ccc(-c3noc(C(F)(F)F)n3)cc2)CC1 [Compound 1.25, 1-methyl-N-[[4-[5-(trifluoromethyl)-1,2,4-oxadiazol-3-yl]phenyl]methyl] cyclopropanecarboxamide]
≥ 80%: pest or weed control at 200 ppm [1] | pest or weed control at 200 ppm [2] | inhibition of growth at 20 ppm [3] | pest or weed control at 200 ppm (Phakopsora pachyrhizi)

O=C(NCc1ccc(-c2noc(C(F)(F)F)n2)c(F)c1)C1CC1(F)F (stereo not drawn) [Compound 1.91, 2,2-difluoro-N-[[3-fluoro-4-[5-(trifluoromethyl)-1,2,4-oxadiazol-3-yl]phenyl]methyl] cyclopropanecarboxamide]
≥ 80%: pest or weed control at 200 ppm [1] | pest or weed control at 200 ppm [2] | inhibition of growth at 20 ppm [3] | pest or weed control at 200 ppm (Phakopsora pachyrhizi)

O=C(NCCc1ccc(-c2noc(C(F)(F)F)n2)cc1)C1CC1(F)F (stereo not drawn) [Compound 1.98, 2,2-difluoro-N-[2-[4-[5-(trifluoromethyl)-1,2,4-oxadiazol-3-yl]phenyl]ethyl] cyclopropanecarboxamide]
≥ 80%: pest or weed control at 200 ppm [1] | pest or weed control at 200 ppm [2] | inhibition of growth at 20 ppm [3] | pest or weed control at 200 ppm (Phakopsora pachyrhizi)

CC1CC1C(=O)NCc1ccc(-c2noc(C(F)(F)F)n2)cc1F (stereo not drawn) [Compound 1.66, N-[[2-fluoro-4-[5-(trifluoromethyl)-1,2,4-oxadiazol-3-yl]phenyl]methyl]-2-methyl-cyclopropanecarboxamide]
≥ 80%: pest or weed control at 200 ppm [1] | pest or weed control at 200 ppm [2] | inhibition of growth at 20 ppm [3] | pest or weed control at 200 ppm (Phakopsora pachyrhizi)

O=C(NCc1ccc(-c2noc(C(F)(F)F)n2)cc1)C1CCCC1 [Compound 1.16, N-[[4-[5-(trifluoromethyl)-1,2,4-oxadiazol-3-yl]phenyl]methyl] cyclopentanecarboxamide]
≥ 80%: pest or weed control at 200 ppm [1] | pest or weed control at 200 ppm [2] | inhibition of growth at 20 ppm [3] | pest or weed control at 200 ppm (Phakopsora pachyrhizi)

O=C(CC1CC1)NCc1ccc(-c2noc(C(F)(F)F)n2)cc1F [Compound 1.62, 2-cyclopropyl-N-[[2-fluoro-4-[5-(trifluoromethyl)-1,2,4-oxadiazol-3-yl]phenyl]methyl] acetamide]
≥ 80%: pest or weed control at 200 ppm [1] | pest or weed control at 200 ppm [2] | inhibition of growth at 20 ppm [3] | pest or weed control at 200 ppm (Phakopsora pachyrhizi)

CC1(C(=O)NCc2ccc(-c3noc(C(F)(F)F)n3)cc2)CCCCC1 [Compound 1.21, 1-methyl-N-[[4-[5-(trifluoromethyl)-1,2,4-oxadiazol-3-yl]phenyl]methyl] cyclohexanecarboxamide]
≥ 80%: pest or weed control at 200 ppm [1] | pest or weed control at 200 ppm [2] | inhibition of growth at 20 ppm [3] | pest or weed control at 200 ppm (Phakopsora pachyrhizi)

O=C(NCc1ccc(-c2noc(C(F)(F)F)n2)c(F)c1F)C1CC1(F)F (stereo not drawn) [Compound 1.72, N-[[2,3-difluoro-4-[5-(trifluoromethyl)-1,2,4-oxadiazol-3-yl]phenyl]methyl]-2,2-difluoro-cyclopropanecarboxamide]
≥ 80%: pest or weed control at 200 ppm [1] | pest or weed control at 200 ppm [2] | inhibition of growth at 20 ppm [3] | pest or weed control at 200 ppm (Phakopsora pachyrhizi)

O=C(CC1CCCC1)NCc1ccc(-c2noc(C(F)(F)F)n2)cc1 [Compound 1.7, 2-cyclopentyl-N-[[4-[5-(trifluoromethyl)-1,2,4-oxadiazol-3-yl]phenyl]methyl]acetamide]
≥ 80%: pest or weed control at 200 ppm [1] | pest or weed control at 200 ppm [2] | inhibition of growth at 20 ppm [3] | pest or weed control at 200 ppm (Phakopsora pachyrhizi)

O=C(NCCc1ccc(-c2noc(C(F)(F)F)n2)cc1)C1CCOC1 (stereo not drawn) [Compound 1.100, N-[2-[4-[5-(trifluoromethyl)-1,2,4-oxadiazol-3-yl]phenyl]ethyl] tetrahydrofuran-3-carboxamide]
≥ 80%: pest or weed control at 200 ppm [1] | pest or weed control at 200 ppm [2] | inhibition of growth at 20 ppm [3] | pest or weed control at 200 ppm (Phakopsora pachyrhizi)

O=C(NCCc1ccc(-c2noc(C(F)(F)F)n2)cc1)C1CCC1 [Compound 1.101, N-[2-[4-[5-(trifluoromethyl)-1,2,4-oxadiazol-3-yl]phenyl]ethyl] cyclobutanecarboxamide]
≥ 80%: pest or weed control at 200 ppm [1] | pest or weed control at 200 ppm [2] | inhibition of growth at 20 ppm [3] | pest or weed control at 200 ppm (Phakopsora pachyrhizi)

O=C(CC1CC1)NCCc1ccc(-c2noc(C(F)(F)F)n2)cc1 [Compound 1.105, 2-cyclopropyl-N-[2-[4-[5-(trifluoromethyl)-1,2,4-oxadiazol-3-yl]phenyl]ethyl]acetamide]
≥ 80%: pest or weed control at 200 ppm [1] | pest or weed control at 200 ppm [2] | inhibition of growth at 20 ppm [3] | pest or weed control at 200 ppm (Phakopsora pachyrhizi)

CC1CC1C(=O)NCc1ccc(-c2noc(C(F)(F)F)n2)c(F)c1F (stereo not drawn) [Compound 1.77, N-[[2,3-difluoro-4-[5-(trifluoromethyl)-1,2,4-oxadiazol-3-yl]phenyl]methyl]-2-methyl-cyclopropanecarboxamide]
≥ 80%: pest or weed control at 200 ppm [1] | inhibition of growth at 20 ppm [3] | pest or weed control at 200 ppm (Phakopsora pachyrhizi)

O=C(NCc1ccc(-c2noc(C(F)(F)F)n2)cc1)C1CCCCC1 [Compound 1.10, N-[[4-[5-(trifluoromethyl)-1,2,4-oxadiazol-3-yl]phenyl]methyl] cyclohexanecarboxamide]
≥ 80%: pest or weed control at 200 ppm [1] | inhibition of growth at 20 ppm [3] | pest or weed control at 200 ppm (Phakopsora pachyrhizi)
